Test results reported in US11884750B2, “Cationic cell penetrating peptides and the use thereof” (CELLTROY CO., LTD., priority 2021, dated 2024).
Entries after “also recorded” stand apart in the source; their conditions may differ.

Assays:
SNU-46 cell line = test: Cell penetration efficiency using laryngeal cells; format: cell-based; details: SNU-46 laryngeal cells, 4 μM FITC-conjugated CPP, one hour
Experimental: (§1) Subsequently, to confirm whether the CPPs according to the present invention show excellent cell permeability into different types of cells/tissues, various tissue-derived cells were treated with biologically active molecule-conjugated CPPs to compare its delivery capacity with TAT. As in the previous examples, each cell was aliquoted in a plate at an appropriate density, and cultured in a 10% FBS-added medium under a condition of 37° C. and 5% CO2 for 24 hours. Subsequently, the cells were treated with 4 μM each of FITC-conjugated CPP or FITC-conjugated TAT and incubated for one hour. After the completion of the incubation, the cells were transferred to a sterile tube using 0.25% trypsin and centrifuged to remove the medium. Afterward, the cells were washed with 500 μL of D-PBS twice to completely remove the medium, and finally, resuspended in 400 μL of D-PBS and intracellular fluorescence was measured by flow cytometry (FACSCanto II).

SH-SY5Y cells = test: Cell penetration efficiency in human neuroblastoma cells, 4 μM, flow cytometry; format: cell-based; details: one hour; for cell permeability compared with TAT: 4 μM FITC-conjugated CPP, flow cytometry; for Score / Score/TAT: 4 μM FITC-conjugated peptide; for Score: intracellular fluorescence by flow cytometry; for Score/TAT: ratio to FITC-conjugated TAT
Experimental: The cell penetration efficiency of the cationic CPPs selected in Example 1 was evaluated in neuroblastoma. In further detail, SH-SYSY cells, which is a human neuroblastoma cell line, were seeded in 24-well plates to have a cell density of 1×10^7 cells/well, and cultured in 10% FBS-added DMEM under conditions of 37° C. and 5% CO2 for 24 hours. In addition, the cells were treated with 4 μM each of FITC-conjugated CPPs (C12, C14, C16, C31, C52, and C67), or FITC-conjugated TAT, and incubated for one hour. After the termination of the incubation, the cells were transferred to a sterile tube using 0.25% trypsin and centrifuged to remove the medium. Afterward, the cells were washed with 500 μL of D-PBS twice to completely remove the medium, and finally, resuspended in 400 μL of D-PBS and intracellular fluorescence was measured by flow cytometry (FACSCanto II).
(§2) To evaluate the cell penetration efficiency of the additionally selected cationic CPPs, an experiment was conducted using human epidermal cells or human neuroblastoma cells. In further detail, HaCAT cells, which is a human epidermal cell line, or SH-SYSY cells, which is a human neuroblastoma cell line, were seeded in 24-well plates to have a cell density of 1×10^7 cells/well and cultured in 10% FBS-added DMEM under conditions of 37° C. and 5% CO2 for 24 hours. In addition, the cells were treated with 4 μM each of FITC-conjugated peptides and FITC-conjugated TAT for one hour. After the completion of the culture, the cells were transferred to a sterile tube using 0.25% trypsin and centrifuged to remove the medium. Afterward, the cells were washed with 500 μL of D-PBS twice to completely remove the medium, and finally, resuspended in 400 μL of D-PBS and intracellular fluorescence was measured by flow cytometry (FACSCanto II).
as §1

HaCAT cells = test: Cell penetration efficiency in human epidermal (skin) cells, 4 μM, flow cytometry; format: cell-based; details: 4 μM FITC-conjugated CPP, one hour
Experimental: The cell penetration efficiency of the cationic CPPs selected in Example 1 was evaluated using human epidermal cells. In further detail, HaCAT cells, which is a human epidermal cell line, were seeded in 24-well plates to have a cell density of 1×10^7 cells/well, and cultured in 10% FBS-added DMEM under conditions of 37° C. and 5% CO2 for 24 hours. Subsequently, the cells were treated 4 μM each of the FITC-conjugated CPP or FITC-conjugated TAT, and incubated for one hour. After the termination of the incubation, the cells were transferred to a sterile tube using 0.25% trypsin, and the medium was removed through centrifugation. Afterward, the cells were washed with 500 μL of D-PBS twice to completely remove the medium, and finally, resuspended in 400 μL of D-PBS and intracellular fluorescence was measured by flow cytometry (FACSCanto II).
as §2, §1

HDF cell line = test: Cell penetration efficiency in skin cells (HDF); format: cell-based; details: 4 μM FITC-conjugated CPP, one hour
Experimental: as §1

macrophages = test: Cell penetration efficiency using macrophages; format: cell-based; details: macrophages differentiated from THP1 cells, 4 μM FITC-conjugated CPP, one hour
Experimental: as §1, with “II). Macrophages were used by inducing differentiation from THP1 cells. Specifically, the THP-1 cells were aliquoted on a cover glass laid on a 24-well plate to have a density of 6×10^4 cells/well, and after the addition of 100 ng/mL of phorbol 12-myristate 13-acetate (PMA), the cells were incubated for 48 hours to induce the differentiation into macrophages. After 48 hours, the cells were washed with Dulbecco's phosphate buffered saline (DPBS) to perform an experiment.” for “II).”

HEK293T cell line = test: Cell penetration efficiency using kidney cells; format: cell-based; details: 4 μM FITC-conjugated CPP, one hour
Experimental: as §1

HeLa cell line = test: Cell penetration efficiency using cervical cancer cells; format: cell-based; details: 4 μM FITC-conjugated CPP, one hour
Experimental: as §1

A-427 cell line = test: Cell penetration efficiency using lung cells; format: cell-based; details: A-427 lung cells, 4 μM FITC-conjugated CPP, one hour
Experimental: as §1

HT1080 cell line = test: Cell penetration efficiency using connective tissue (fibrosarcoma) cells; format: cell-based; details: 4 μM FITC-conjugated CPP, one hour
Experimental: as §1

HepG2 cell line = test: Cell penetration efficiency using liver cells; format: cell-based; details: 4 μM FITC-conjugated CPP, one hour
Experimental: as §1

HGB cell line = test: Cell penetration efficiency in glioblastoma cells; format: cell-based, human; details: 4 μM FITC-conjugated CPP, one hour
Experimental: as §1

monocytes = test: Cell penetration efficiency using monocytes; format: cell-based; details: 4 μM FITC-conjugated CPP, one hour
Experimental: as §1

| Sequence | cell permeability compared with TAT (SNU-46 cell line) | cell permeability compared with TAT (SH-SY5Y cells) | Score (SH-SY5Y cells) | Score/TAT (SH-SY5Y cells) | cell permeability compared with TAT (HaCAT cells) | cell permeability compared with TAT (HDF cell line) | cell permeability compared with TAT (macrophages) | cell permeability compared with TAT (HEK293T cell line) | cell permeability compared with TAT (HeLa cell line) | cell permeability compared with TAT (A-427 cell line) | cell permeability compared with TAT (HT1080 cell line) | cell permeability compared with TAT (HepG2 cell line) | cell permeability compared with TAT (HGB cell line) | cell permeability compared with TAT (monocytes) |
| --- | --- | --- | --- | --- | --- | --- | --- | --- | --- | --- | --- | --- | --- | --- |
| TKRRKRRLRRRLTP [C52] | higher cell permeability | higher cell permeability | 1328 | 2.559 | increased cell permeability; also recorded: higher cell permeability | higher cell permeability | higher cell permeability | higher cell permeability | higher cell permeability | higher cell permeability | higher cell permeability | higher cell permeability | – | – |
| KPRKKKKKRKNKKI [C12] | higher cell permeability | higher cell permeability | 2062 | 3.973 | increased cell permeability | higher cell permeability | higher cell permeability | higher cell permeability | higher cell permeability | higher cell permeability | higher cell permeability | higher cell permeability | higher cell permeability | – |
| MPKIRKLKRRKKFR [C79] | higher cell permeability | higher cell permeability | 863 | 1.663 | higher cell permeability | higher cell permeability | – | – | higher cell permeability | – | higher cell permeability | higher cell permeability | higher cell permeability | higher cell permeability |
| ARLRVILRRRNPKR [C93] | higher cell permeability | higher cell permeability | 1798 | 3.464 | higher cell permeability | higher cell permeability | – | higher cell permeability | higher cell permeability | higher cell permeability | higher cell permeability | higher cell permeability | higher cell permeability | higher cell permeability |
| IRAKKKKRRRKKKP [C31] | higher cell permeability | higher cell permeability | 998 | 1.923 | increased cell permeability; also recorded: higher cell permeability | higher cell permeability | higher cell permeability | higher cell permeability | higher cell permeability | higher cell permeability | higher cell permeability | higher cell permeability | – | – |
